Laboratory results from PubChem BioAssay AID330 (DTP/NCI, 2004).
Values joined by “and” are separate entries in the source; they are usually repeats but may differ in a detail not shown here. Equal values may be shown once. Inconclusive results and toxic doses are left out.

Test system: P388 leukemia ip, CD2F1 mice, survival T/C
Experiment: NCI In Vivo Anticancer Drug Screen. Data for tumor model P388 Leukemia (intraperitoneal) in CD2F1 (CDF1) mice
Settings: endpoint: median survival time, higher = longer survival
Method in brief: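 Mice carrying the transplanted tumor received test compound or vehicle. Survival was recorded in each group, and the value is the treated-group measurement divided by that of the vehicle-treated control group.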

[1] = dose: 50.0 mg/kg/injection, schedule: Q01DX005 (ip), vehicle: saline with Tween-80
[2] = dose: 100.0 mg/kg/injection, schedule: Q01DX005 (ip), vehicle: saline with Tween-80
[3] = dose: 200.0 mg/kg/injection, schedule: Q01DX005 (ip), vehicle: saline with Tween-80
[4] = dose: 50.0 mg/kg/injection, schedule: Q01DX005 (ip), vehicle: Klucel (hydroxypropylcellulose) (HPC)
[5] = dose: 100.0 mg/kg/injection, schedule: Q01DX005 (ip), vehicle: Klucel (hydroxypropylcellulose) (HPC)
[6] = dose: 200.0 mg/kg/injection, schedule: Q01DX005 (ip), vehicle: Klucel (hydroxypropylcellulose) (HPC)
[7] = dose: 100.0 mg/kg/injection, schedule: Q01DX001 (ip), vehicle: Klucel (hydroxypropylcellulose) (HPC)
[8] = dose: 200.0 mg/kg/injection, schedule: Q01DX001 (ip), vehicle: Klucel (hydroxypropylcellulose) (HPC)
[9] = dose: 400.0 mg/kg/injection, schedule: Q01DX001 (ip), vehicle: Klucel (hydroxypropylcellulose) (HPC)
[10] = dose: 50.0 mg/kg/injection, schedule: Q01DX009 (ip), vehicle: Klucel (hydroxypropylcellulose) (HPC)
[11] = dose: 100.0 mg/kg/injection, schedule: Q01DX009 (ip), vehicle: Klucel (hydroxypropylcellulose) (HPC)
[12] = dose: 200.0 mg/kg/injection, schedule: Q01DX009 (ip), vehicle: Klucel (hydroxypropylcellulose) (HPC)
[13] = dose: 100.0 mg/kg/injection, schedule: Q01DX001 (ip), vehicle: saline with Tween-80
[14] = dose: 100.0 mg/kg/injection, schedule: Q01DX009 (ip), vehicle: saline with Tween-80
[15] = dose: 200.0 mg/kg/injection, schedule: Q01DX009 (ip), vehicle: saline with Tween-80

O=C(Nc1cccc(Cl)c1)OCC(COC(=O)Nc1cccc(Cl)c1)(COC(=O)Nc1cccc(Cl)c1)[N+](=O)[O-]
T/C [1]: 95 % of control | T/C [2]: 98 % of control | T/C [3]: 100 % of control

C[As](C)SCC1OC(n2ccc(=O)[nH]c2=O)C2OC(C)(C)OC12 (stereo unspecified)
T/C (dose: 12.5 mg/kg/injection, schedule: Q01DX009 (ip), vehicle: distilled water + Tween-80): 103 % of control | T/C (dose: 25.0 mg/kg/injection, schedule: Q01DX009 (ip), vehicle: distilled water + Tween-80): 110 % of control | T/C (dose: 50.0 mg/kg/injection, schedule: Q01DX009 (ip), vehicle: distilled water + Tween-80): 116 % of control | T/C (dose: 100.0 mg/kg/injection, schedule: Q01DX009 (ip), vehicle: distilled water + Tween-80): 113 % of control

CC1Cc2ccc3c(c2C(c2ccc4c(c2)OCO4)C1C)OCO3 (stereo unspecified)
T/C (dose: 60.0 mg/kg/injection, schedule: Q01DX005 (ip), vehicle: Klucel + Tween-80): 103 % of control | T/C (dose: 120.0 mg/kg/injection, schedule: Q01DX005 (ip), vehicle: Klucel + Tween-80): 97 % of control | T/C (dose: 240.0 mg/kg/injection, schedule: Q01DX005 (ip), vehicle: Klucel + Tween-80): 86 % of control

CSC(=S)/C(=C/Nc1ccccn1)c1ccccc1
T/C (dose: 0.93 mg/kg/injection, schedule: Q01DX005 (ip), vehicle: Klucel (hydroxypropylcellulose) (HPC)): 100 % of control | T/C (dose: 1.87 mg/kg/injection, schedule: Q01DX005 (ip), vehicle: Klucel (hydroxypropylcellulose) (HPC)): 94 % of control

C(=Nc1ccccc1)C1=C(Nc2ccccc2)CCC1
T/C [4]: 100 % of control | T/C [5]: 100 % of control | T/C [6]: 106 % of control

CC(C)(C)CC(C)(C)c1ccc(O)c(O)c1
T/C (dose: 25.0 mg/kg/injection, schedule: Q01DX005 (ip), vehicle: saline): 100 % of control | T/C (dose: 50.0 mg/kg/injection, schedule: Q01DX005 (ip), vehicle: saline): 101 % of control | T/C (dose: 100.0 mg/kg/injection, schedule: Q01DX005 (ip), vehicle: saline): 106 % of control | T/C (dose: 100.0 mg/kg/injection, schedule: Q01DX009 (ip), vehicle: saline): 106 % of control and 94 % of control | T/C (dose: 200.0 mg/kg/injection, schedule: Q01DX005 (ip), vehicle: saline): 110 % of control | T/C (dose: 400.0 mg/kg/injection, schedule: Q01DX009 (ip), vehicle: saline): 94 % of control

CC(Br)C(C)(C)OO (stereo unspecified)
T/C [7]: 101 % of control | T/C [8]: 95 % of control | T/C [9]: 100 % of control

CN(C)NP(=O)(NN(C)C)c1ccccc1
T/C (dose: 60.0 mg/kg/injection, schedule: Q01DX005 (ip), vehicle: saline): 100 % of control | T/C (dose: 120.0 mg/kg/injection, schedule: Q01DX005 (ip), vehicle: saline): 103 % of control | T/C (dose: 240.0 mg/kg/injection, schedule: Q01DX005 (ip), vehicle: saline): 109 % of control

COc1ccc(C(=O)N2CC(O)=CC2=O)cc1
T/C [10]: 105 % of control | T/C [11]: 107 % of control | T/C [12]: 92 % of control

CC(C)=CCC1=C(OC2OC(CO)C(O)C(O)C2O)C(=O)c2ccccc2C1=O (stereo unspecified)
T/C (dose: 6.25 mg/kg/injection, schedule: Q01DX009 (ip), vehicle: saline with Tween-80): 121 % of control | T/C (dose: 12.5 mg/kg/injection, schedule: Q01DX009 (ip), vehicle: saline with Tween-80): 118 % of control | T/C (dose: 25.0 mg/kg/injection, schedule: Q01DX009 (ip), vehicle: saline with Tween-80): 114 % of control

N[C@@H](Cc1c[nH]c2ccccc12)C(=O)Nc1nncs1
T/C (dose: 18.75 mg/kg/injection, schedule: Q01DX005 (ip), vehicle: saline): 100 % of control and 102 % of control | T/C (dose: 37.5 mg/kg/injection, schedule: Q01DX005 (ip), vehicle: saline): 98 % of control and 101 % of control | T/C (dose: 50.0 mg/kg/injection, schedule: Q04DX002 (ip), vehicle: suspension in saline): 100 % of control | T/C (dose: 75.0 mg/kg/injection, schedule: Q01DX005 (ip), vehicle: saline): 100 % of control and 101 % of control | T/C (dose: 100.0 mg/kg/injection, schedule: Q04DX002 (ip), vehicle: suspension in saline): 100 % of control | T/C (dose: 150.0 mg/kg/injection, schedule: Q01DX005 (ip), vehicle: saline): 99 % of control and 100 % of control | T/C (dose: 200.0 mg/kg/injection, schedule: Q04DX002 (ip), vehicle: suspension in saline): 99 % of control | T/C (dose: 300.0 mg/kg/injection, schedule: Q01DX005 (ip), vehicle: saline): 106 % of control and 109 % of control | T/C (dose: 600.0 mg/kg/injection, schedule: Q04DX002 (ip), vehicle: saline): 171 % of control | T/C (dose: 800.0 mg/kg/injection, schedule: Q04DX002 (ip), vehicle: suspension in saline): 151 % of control

COC(=O)C1=C(O)c2cc(C)c(C)c(C#N)c2NC(=O)C1
T/C (dose: 60.0 mg/kg/injection, schedule: Q01DX005 (ip), vehicle: saline with Tween-80): 95 % of control | T/C (dose: 120.0 mg/kg/injection, schedule: Q01DX005 (ip), vehicle: saline with Tween-80): 97 % of control | T/C (dose: 240.0 mg/kg/injection, schedule: Q01DX005 (ip), vehicle: saline with Tween-80): 93 % of control

Nc1cc2ccccc2c(Br)n1
T/C [13]: 100 % of control | T/C (dose: 200.0 mg/kg/injection, schedule: Q01DX001 (ip), vehicle: saline with Tween-80): 95 % of control | T/C (dose: 400.0 mg/kg/injection, schedule: Q01DX001 (ip), vehicle: saline with Tween-80): 100 % of control

NCCn1[nH]c(=O)c2cccnc2c1=O
T/C (dose: 100.0 mg/kg/injection, schedule: Q04DX002 (ip), vehicle: saline with Tween-80): 100 % of control | T/C (dose: 200.0 mg/kg/injection, schedule: Q04DX002 (ip), vehicle: saline with Tween-80): 95 % of control | T/C (dose: 400.0 mg/kg/injection, schedule: Q04DX002 (ip), vehicle: saline with Tween-80): 101 % of control

O=c1oc(-c2ccc(Cl)c([N+](=O)[O-])c2)ns1
T/C [11]: 107 % of control | T/C [12]: 113 % of control

COc1ccc(/C(=N\N)C2=NNC3(CCCCC3)NN2)cc1
T/C [10]: 94 % of control | T/C [11]: 93 % of control | T/C [12]: 96 % of control

CCOc1ccc(N=NC2C(=O)N(c3cccc(Cl)c3Cl)C(=S)N(c3ccc(OC)cc3)C2O)cc1 (stereo unspecified)
T/C [7]: 100 % of control | T/C [8]: 96 % of control | T/C [9]: 96 % of control

Cc1cnc2ncn(Cc3c[nH]c(=O)[nH]c3=O)c(=O)c2c1
T/C (dose: 12.5 mg/kg/injection, schedule: Q01DX001 (ip), vehicle: saline with Tween-80): 110 % of control | T/C (dose: 25.0 mg/kg/injection, schedule: Q01DX001 (ip), vehicle: saline with Tween-80): 107 % of control | T/C (dose: 50.0 mg/kg/injection, schedule: Q01DX001 (ip), vehicle: saline with Tween-80): 104 % of control | T/C [13]: 104 % of control

CC1=NN(C(=O)c2ccncc2)C(=O)C1N=Nc1ccccc1C (stereo unspecified)
T/C (dose: 50.0 mg/kg/injection, schedule: Q01DX009 (ip), vehicle: saline with Tween-80): 95 % of control | T/C [14]: 94 % of control | T/C [15]: 94 % of control

CC1=NNC(=O)C1N=Nc1c(C)n(C)n(-c2ccccc2)c1=O (stereo unspecified)
T/C [1]: 100 % of control | T/C [2]: 99 % of control | T/C [3]: 100 % of control

c1ccc(Nc2nnnn2C2CCCCC2)cc1
T/C (dose: 6.25 mg/kg/injection, schedule: Q01DX009 (ip), vehicle: saline): 101 % of control | T/C (dose: 12.5 mg/kg/injection, schedule: Q01DX009 (ip), vehicle: saline): 105 % of control | T/C (dose: 25.0 mg/kg/injection, schedule: Q01DX009 (ip), vehicle: saline): 100 % of control | T/C (dose: 50.0 mg/kg/injection, schedule: Q01DX009 (ip), vehicle: saline): 108 % of control

C/C(=C\c1c[nH]c2ccccc12)[N+](=O)[O-]
T/C [14]: 109 % of control | T/C [15]: 104 % of control | T/C (dose: 400.0 mg/kg/injection, schedule: Q01DX009 (ip), vehicle: saline with Tween-80): 124 % of control

[N-]=[N+]=NC1(N=[N+]=[N-])C(=O)Nc2ccccc2C1=O (stereo unspecified)
T/C [4]: 93 % of control | T/C [5]: 103 % of control | T/C [6]: 107 % of control

Cn1c(CC(=O)O)csc1=S
T/C [1]: 93 % of control | T/C [2]: 94 % of control | T/C [3]: 89 % of control

CCOC(=O)C(C)(/C=N/NS(=O)(=O)c1ccc(C)cc1)c1ccccc1 (stereo unspecified)
T/C [10]: 106 % of control | T/C [11]: 98 % of control | T/C [12]: 100 % of control
